How the values were obtained:
Type in all cases: in vivo, human
ADHD patients [1] = test: REIMAGINE Phase IIa trial, ADHD cohort: aggression by Clinical Global Impression (CGI-S, CGI-I) scales; details: adult ADHD patients (5 eligible), 1.2 mg/day oral, 5 days on/2 days off, 8 weeks
Description: (§1) As part of a Phase IIa clinical trial (REIMAGINE trial, EudraCT number 2018-002140-88) to evaluate the safety, tolerability and efficacy of the KDM1A inhibitor vafidemstat to treat aggression in adult population in patients with different CNS disorders, a cohort of ADHD patients was recruited and treated with vafidemstat for 8 weeks. A summary of the protocol of this clinical trial and results obtained in the ADHD cohort are provided below.
(§2) Reimagine is a unicenter, open-label, 1-arm, 8-week clinical study to evaluate the efficacy, safety and tolerability of vafidemstat in aggression in adult population with Alzheimer's Disease (AD), Lewy Body Dementia (LBD), Adult attention Deficit Hyperactivity Disorder (ADHD), Borderline Personality Disorder (BPD) and Autism Spectrum Disorder (ASD). Six patients to be recruited per disorder. […]
(§3) Evaluation of the effect of treatment with vafidemstat on aggression was performed using the Clinical Global Impression (CGI) scale. […] In addition to assessing its effect on aggression, the effect of treatment with vafidemstat on ADHD patients was also evaluated using the Attention Deficit Hyperactivity Disorder Rating Scale (ADHD-RS), a validated scale that is specific for ADHD and is widely used to evaluate ADHD in adults. […] Each item is scored from 0 to 3 points, with the highest scores indicating the presence of problematic symptoms/behavior. […]

ADHD patients [2] = test: REIMAGINE Phase IIa trial, ADHD cohort: ADHD Rating Scale (ADHD-RS); details: adult ADHD patients (5 eligible), 1.2 mg/day oral, 5 days on/2 days off, 8 weeks; paired one-tail t-test p=0.0279
Description: as §1, §2, §3

ADHD patients [3] = test: REIMAGINE Phase IIa trial, ADHD cohort: safety and tolerability; details: adult ADHD patients, 1.2 mg/day oral, 5 days on/2 days off, 8 weeks
Description: as §1
Reimagine is a unicenter, open-label, 1-arm, 8-week clinical study to evaluate the efficacy, safety and tolerability of vafidemstat in aggression in adult population with Alzheimer's Disease (AD), Lewy Body Dementia (LBD), Adult attention Deficit Hyperactivity Disorder (ADHD), Borderline Personality Disorder (BPD) and Autism Spectrum Disorder (ASD). Six patients to be recruited per disorder.
Main objective of the trial: To evaluate the safety and tolerability of vafidemstat in adult population with Alzheimer's Disease (AD), Lewy Body Dementia (LBD), Adult attention deficit hyperactivity disorder (ADHD), Borderline Personality Disorder (BPD), Autism Spectrum Disorder (ASD)
Treatment: All patients received vafidemstat (as free base) at a dose of 1.2 mg/day, administered orally as a single capsule, in a 5 days on/2 days off schedule, during 8 weeks. […]

Structure (SMILES): Nc1nnc(CN[C@@H]2C[C@H]2c2ccc(OCc3ccccc3)cc2)o1 [vafidemstat, 5-((((1R,2S)-2-(4-(benzyloxy)phenyl)cyclopropyl)amino)methyl)-1,3,4-oxadiazol-2-amine]
- CGI-Severity (CGI-S) score, aggression, change from visit 1 (baseline) to visit 7 (ADHD patients [1]; paired one-tail t-test p=0.0043): statistically significant reductions
- CGI-Improvement (CGI-I) score, aggression, change from visit 1 (baseline) to visit 7 (ADHD patients [1]; paired one-tail t-test p=0.0352): statistically significant reductions
- ADHD-RS score, change from visit 1 (baseline) to visit 7 (ADHD patients [2]): statistically significant reduction
- safety and tolerability of treatment (ADHD patients [3]): safe and well tolerated, without significant adverse events

From patent publication US20220151999A1, “METHODS OF TREATING ATTENTION DEFICIT HYPERACTIVITY DISORDER USING KDM1A INHIBITORS SUCH AS THE COMPOUND VAFIDEMSTAT” (ORYZON GENOMICS, S.A., priority 2019, published 2022)
